These results are taken from patent US6403606B1, “Thienopyridine derivatives and their use” (Takeda Chemical Industries Ltd., priority 1996, dated 2002).

Marks after values point to notes of the source that are not given here.

In one series the test system is Rat Adjuvant Arthritis. Description: Activity on rat adjuvant arthritis (Test Example 1A). The class given is in vivo, Male Lewis rats. Particulars: 6.25 mg/kg once daily for 14 days; day 14; relative to non-sensitized rats; N=6. The protocol:
Male Lewis rats (7 weeks old, Clea Japan) were sensitized by intracutaneous injection of 0.05 ml of Freund's complete adjuvant (0.5% dead tubercle bacillus cell suspension in liquid paraffin) at the right hind paw. The test drug (6.25 mg/kg), in a suspension in 0.5% methyl cellulose, was administered once daily for 14 days starting just before sensitization (day 0). At the days 0 and 14, the left hind paw volume and body weight of the animals were measured using a plethysmometer (manufactured by Ugo Basile Company, Italy) and an electronic balance (EB-3200D, manufactured by Shimadzu Corporation, Japan), respectively, and paw swelling suppression rate (%) and body weight gain rate (%), relative to non-sensitized rats, were determined.
The results, expressed in mean±S.E. for each group (N=6), were compared and statistically analyzed by Dunnet method. Level of significance was set below 5%.
Turning to `CCOC(=O)c1c(CN(CC)CC)nc2sc3c(c2c1-c1ccc(OC)c(OC)c1)CCN(C(=O)c1ccccc1)C3` [Example 1A, ethyl 7-benzoyl-2-(N,N-diethylaminomethyl)-4-(3,4-dimethoxyphenyl)-5,6,7,8-tetrahydrothieno[2,3-b:5,4-c′]dipyridine-3-carboxylate], the “Body weight gain rate (%)” value worked out at 15%.

Turning to `CCOC(=O)c1c(CN(CC)CC)nc2sc3cnccc3c2c1-c1ccc(OC)c(OC)c1` [Example 7A, ethyl 2-(N,N-diethylaminomethyl)-4-(3,4-dimethoxyphenyl)thieno[2,3-b:5,4-c′]dipyridine-3-carboxylate], the “Body weight gain rate (%)” value is 26** %. Same read-out and setting: in the case of `CCOC(=O)c1c(CN(CC)CC)nc2sc3c(c2c1-c1ccc(OC)c(OC)c1)CCN(C(C)=O)C3` [Example 15A, ethyl 7-acetyl-2-(N,N-diethylaminomethyl)-4-(3,4-dimethoxyphenyl)-5,6,7,8-tetrahydrothieno[2,3-b:5,4-c′]dipyridine-3-carboxylate] it was 9%.

The series is the same for the next values; noted with them: 6.25 mg/kg once daily for 14 days; left hind paw volume day 14; relative to non-sensitized rats; N=6.
As for `CCOC(=O)c1c(CN(CC)CC)nc2sc3c(c2c1-c1ccc(OC)c(OC)c1)CCN(C(=O)c1ccccc1)C3` [Example 1A, ethyl 7-benzoyl-2-(N,N-diethylaminomethyl)-4-(3,4-dimethoxyphenyl)-5,6,7,8-tetrahydrothieno[2,3-b:5,4-c′]dipyridine-3-carboxylate], the “Edema inhibitory rate (%)” value was found to be 49%. For `CCOC(=O)c1c(CN(CC)CC)nc2sc3cnccc3c2c1-c1ccc(OC)c(OC)c1` [Example 7A, ethyl 2-(N,N-diethylaminomethyl)-4-(3,4-dimethoxyphenyl)thieno[2,3-b:5,4-c′]dipyridine-3-carboxylate], the “Edema inhibitory rate (%)” value is recorded as 84** %. As to `CCOC(=O)c1c(CN(CC)CC)nc2sc3c(c2c1-c1ccc(OC)c(OC)c1)CCN(C(C)=O)C3` [Example 15A, ethyl 7-acetyl-2-(N,N-diethylaminomethyl)-4-(3,4-dimethoxyphenyl)-5,6,7,8-tetrahydrothieno[2,3-b:5,4-c′]dipyridine-3-carboxylate], the “Edema inhibitory rate (%)” value is reported as 60** %.

In another series the test system is fetal rat bone culture (humeri, radii and ulnae). Description: Bone resorption inhibitory activity, 45Ca release from fetal rat bone culture (Test Example 2A). It is filed as cell-based, Sprague-Dawlay rat. Particulars: 10 μM compound, 2 days culture; 45Ca release as % of control without compound (lower = more inhibition). The procedure: The measurement of bone resorption inhibitory activity was carried out according to the method of Raisz [J. Clin. Invest., 44, 103-116 (1965)]. Namely, 50 μCi of ^45Ca (radioisotope of calcium in CaCl2 solution) was subcutaneously injected into a Sprague-Dawlay rat of 18th day of pregnancy. On the next day, the abdomen was opened and a fetal rat was taken out sterilely. The left and right humeri (radii and ulnae) were removed from the body under a dissection microscope and connective tissues and cartilages were removed as much as possible. Thus, bone culture samples were prepared. The bone was incubated in a medium (0.6 ml) of BCJb medium (Fitton-Jackson modification: GIBCO Laboratories, U.S.A.) containing 2 mg/ml of bovine serum albumin at 37° C. for 24 hours in an atmosphere of 5% of CO2 in air. The bones were cultured for an additional 2 days in the above medium containing a final concentration of 10 μM of the compound. The ratio (%) of ^45Ca released from the bone into the medium was calculated according to the following equation. [formula]
The bones from the same litter were cultured for 2 days the same manner without addition of the compound, and used as the control. The mean±standard deviation of the values for five bones of each group was calculated. The ratio (%) of this value to the control value was calculated. The results are shown in Table 2 (In the tables hereinafter, Ex. No. indicates Example No.).
Regarding `CCOC(=O)c1c(CN(CC)CC)nc2sc3c(c2c1-c1ccc(OC)c(OC)c1)CCN(C(=O)c1ccc(Cl)cc1)C3` [Example 2A, ethyl 7-(4-chlorobenzoyl)-2-(N,N-diethylaminomethyl)-4-(3,4-dimethoxyphenyl)-5,6,7,8-tetrahydrothieno[2,3-b:5,4-c′]dipyridine-3-carboxylate], the “Bone resorption inhibitory activity (^45Ca release) (% based on the control value)” value is 62** % based on the control value. For `CCOC(=O)c1c(CN(CC)CC)nc2sc3c(c2c1-c1ccc(OC)c(OC)c1)CCNC3` [Example 5A, ethyl 2-(N,N-diethylaminomethyl)-4-(3,4-dimethoxyphenyl)-5,6,7,8-tetrahydrothieno-[2,3-b:5,4-c′]dipyridine-3-carboxylate], the “Bone resorption inhibitory activity (^45Ca release) (% based on the control value)” value is 72* % based on the control value.

Test system in a further series: not given
Experiment: not given
Settings: not given
In turn, `CCOC(=O)c1c(CN(CC)CC)nc2sc3c(c2c1-c1ccc(OC)c(OC)c1)CCN(C(=O)c1ccc(Cl)cc1)C3` [Example 2A, ethyl 7-(4-chlorobenzoyl)-2-(N,N-diethylaminomethyl)-4-(3,4-dimethoxyphenyl)-5,6,7,8-tetrahydrothieno[2,3-b:5,4-c′]dipyridine-3-carboxylate] gave a melting point of 96 to 98 °C.

`CCOC(=O)c1c(CN(CC)CC)nc2sc3c(c2c1-c1ccc(OC)c(OC)c1)CCNC3` [Example 5A, ethyl 2-(N,N-diethylaminomethyl)-4-(3,4-dimethoxyphenyl)-5,6,7,8-tetrahydrothieno-[2,3-b:5,4-c′]dipyridine-3-carboxylate] returned a melting point of 72 to 75 °C. On the same count and under the same terms, in the case of `CCOC(=O)c1c(CCCn2cncn2)nc2sc3cnccc3c2c1-c1ccc(OC)c(OC)c1` [Example 29A, ethyl 4-(3,4-dimethoxyphenyl)-2-[3-(1,2,4-triazol-1-yl)propyl]thieno[2,3-b:5,4-c′]dipyridine-3-carboxylate] it was 127 to 129 °C; in that of `CCOC(=O)c1c(CCCCn2cncn2)nc2sc3cnccc3c2c1-c1ccc(OC)c(OC)c1` [Example 30A, ethyl 4-(3,4-dimethoxyphenyl)-2-[4-(1,2,4-triazol-1-yl)butyl]thieno[2,3-b:5,4-c′]dipyridine-3-carboxylate], 118 to 119 °C; in that of `CCOC(=O)c1c2c(cn1CN(CC)CC)C1=C(NC(C(C)=O)CC1)[SH]2c1ccc(OC)c(OC)c1` (stereo not drawn) [Example 32A, ethyl 2-acetyl-8-(3,4-dimethoxyphenyl)-6-diethylaminomethyl-2,3-dihydro-1H-pyrrolo[3′,4′:4,5]thieno[2,3-b]pyridine-7-carboxylate], 123 to 124 °C. Compound `COc1ccc(-c2c(Cl)c(COC3=NN(c4ccccc4)CC3)nc3sc4c(c23)CCN(Cc2ccccc2)C4)cc1OC` [Example 32B, 7-benzyl-3-chloro-4-(3,4-dimethoxyphenyl)-2-(1-phenyl-2-pyrazolin-3-yloxymethyl)-5,6,7,8-tetrahydrothieno[2,3-b:5,4-c′]dipyridine] yielded a melting point of 157 to 158 °C. Same read-out and setting: to `CCOC(=O)c1c(CN(CC)CC)nc2sc3c(c2c1-c1ccc(CC)cc1)CCN(C(=O)Nc1ccccc1)C3` [Example 36A] belongs 112 to 114 °C; to `COc1ccc(-c2c(Cl)c(CN3CCCC3=O)nc3sc4cnccc4c23)cc1OC` [Example 36B, 3-chloro-4-(3,4-dimethoxyphenyl)-2-(2-oxopyrrolidin-1-ylmethyl)thieno[2,3-b:5,4-c′]dipyridine], 228 to 230 °C; to `CCOC(=O)c1c(CN(CC)CC)nc2sc3c(c2c1-c1ccc(CC)cc1)CCN(OC(=O)CC)C3` [Example 39A], 97 to 99 °C.

As for `CCOC(=O)c1c(CN(CC)CC)nc2sc3c(c2c1-c1ccc(CC)cc1)CCN(S(=O)(=O)c1ccccc1)C3` [Example 42A], the melting point was in the range of 140 to 141 °C. The compound `CCOC(=O)c1c(Cn2cncn2)nc2sc3cnccc3c2c1-c1ccc(OC)c(OC)c1` [Example 47A, ethyl 4-(3,4-dimethoxyphenyl)-2-(1,2,4-triazol-1-ylmethyl)thieno[2,3-b:5,4-c′]dipyridine-3-carboxylate] gave a melting point of 172 to 174 °C. Turning to `CCOC(=O)c1c(CN(CC)CC)nc2sc3cnccc3c2c1-c1ccc(O)c(OC)c1` [Example 51A, ethyl 2-diethylaminomethyl-4-(4-hydroxy-3-methoxyphenyl)thieno[2,3-b:5,4-c′]dipyridine-3-carboxylate], the melting point lay in the range of 179 to 181 °C. Still for that read-out and setting: to `CCOC(=O)c1c(CN2C(=O)CN(C)C2=O)nc2sc3c(c2c1-c1ccc(OC)c(OC)c1)CCN(C(=O)c1ccccc1)C3` [Example 52A, ethyl 7-benzoyl-4-(3,4-dimethoxyphenyl)-2-(1-methylhydantoin-3-ylmethyl)-5,6,7,8-tetrahydrothieno[2,3-b:5,4-c′]dipyridine-3-carboxylate] belongs 185 to 187 °C; to `CCOC(=O)c1c(CN(CC)CC)nc2sc3c(c2c1-c1ccc(OC)c(OC)c1)CN(C(=O)c1ccc(Cl)cc1)CC3` [Example 53A, ethyl 6-(4-chlorobenzoyl)-2-diethylaminomethyl-4-(3,4-dimethoxyphenyl)-5,6,7,8-tetrahydrothieno[2,3-b:4,5-c′]dipyridine-3-carboxylate], 91 to 92 °C. For `CCOC(=O)c1c(CN(CC)CC)nc2sc3ccncc3c2c1-c1ccc(OC)c(OC)c1` [Example 55A, ethyl 2-diethylaminomethyl-4-(3,4-dimethoxyphenyl)thieno[2,3-b:4,5-c′]dipyridine-3-carboxylate], the melting point was 141 to 142 °C.

In the case of `CCOC(=O)c1c(Cn2cncn2)nc2sc3c(c2c1-c1ccc(OC)c(OC)c1)CCCN3C(=O)OCc1ccccc1` [Example 56A, ethyl 8-benzyloxycarbonyl-4-(3,4-dimethoxyphenyl)-5,6,7,8-tetrahydro-2-(1,2,4-triazol-1-ylmethyl)thieno[2,3-b:5,4-b′]dipyridine-3-carboxylate], the melting point is 184 to 185 °C. In the case of `CCOC(=O)c1c(CN(CC)CC)nc2sc3c(c2c1-c1ccc(OC)c(OC)c1)CCCN3C(=O)OCc1ccccc1` [Example 58A, ethyl 8-benzyloxycarbonyl-2-diethylaminomethyl-4-(3,4-dimethoxyphenyl)-5,6,7,8-tetrahydrothieno[2,3-b:5,4-b′]dipyridine-3-carboxylate], the melting point is 138 to 139 °C. With `CCOC(=O)c1c(Cn2cncn2)nc2sc3c(c2c1-c1ccc(OC)c(OC)c1)CN(C(=O)OCc1ccccc1)CC3` [Example 59A, ethyl 6-benzyloxycarbonyl-4-(3,4-dimethoxyphenyl)-5,6,7,8-tetrahydro-2-(1,2,4-triazol-1-ylmethyl)thieno[2,3-b:4,5-c′]dipyridine-3-carboxylate], the melting point was in the range of 169 to 170 °C. In turn, `CCOC(=O)c1c(Cn2cncn2)nc2sc3c(c2c1-c1ccc(OC)c(OC)c1)CNCC3` [Example 63A, ethyl 4-(3,4-dimethoxyphenyl)-5,6,7,8-tetrahydro-2-(1,2,4-triazol-1-ylmethyl)thieno[2,3-b:4,5-c′]dipyridine-3-carboxylate] had a melting point of 180 to 181 °C.

As for `CCOC(=O)c1c(CN(CC)CC)nc2sc3ncccc3c2c1-c1ccc(OC)c(OC)c1` [Example 64A, ethyl 2-diethylaminomethyl-4-(3,4-dimethoxyphenyl)thieno[2,3-b:5,4-b′]dipyridine-3-carboxylate], the melting point was 156 to 157 °C. Same read-out and setting: in the case of `CCOC(=O)c1c(Cn2cncn2)nc2sc3ncccc3c2c1-c1ccc(OC)c(OC)c1` [Example 65A, ethyl 4-(3,4-dimethoxyphenyl)-2-(1,2,4-triazol-1-ylmethyl)thieno[2,3-b:5,4-b′]dipyridine-3-carboxylate] it was 180 to 182 °C. Compound `CCOC(=O)c1c(Cn2cncn2)nc2sc3ccncc3c2c1-c1ccc(OC)c(OC)c1` [Example 66A, ethyl 4-(3,4-dimethoxyphenyl)-2-(1,2,4-triazol-1-ylmethyl)thieno[2,3-b:4,5-c′]dipyridine-3-carboxylate] returned a melting point of 166 to 167 °C.
